# Assay results as given in patent US20220031800A1, “PEPTIDES FOR TREATING NON-EXUDATIVE MACULAR DEGENERATION AND OTHER DISORDERS OF THE EYE” (Allegro Pharmaceuticals, LLC, priority 2019, published 2022).
# Values joined by “and” are separate entries in the source; they are usually repeats but may differ in a detail not shown here. Equal entries are not always repeated. Square brackets hold non-standard residues; d marks the D form. Peptide text beside a SMILES is read from it. Cya = N[C@@H](CS(=O)(=O)O)C(=O)O
# System: study eye of subjects with intermediate non-exudative AMD
# Assay: SD-OCT Analysis 2 (thickness, volume, map coverage of retinal layers)
# Type: in vivo, human
# Conditions: change from baseline at Week 32
# Experimental: Numerous study assessments were conducted at various time points throughout the study. Included among these study assessments were; refractive eye examinations, determinations of BCVA AND low-luminance BCVA, Lanthony D-15 color vision test, measurement of intraocular pressure (IOP), Indirect ophthalmoscopy/dilated fundus examinations and spectral-domain optical coherence tomography (SD-OCT). Also, blood and saliva samples were obtained from each subject for genetic analysis. The above-listed study assessments were performed at the time points indicated in Table 1, below: The OCT scans were analyzed by two (2) unrelated experts. In Analysis #2, the OCT images of study eyes were analyzed to determine mean thickness and mean volume of numerous retinal subfields and layer segments at baseline and at Week 12 for sham eyes and at baseline and at Week 32 for risuteganib eyes, to document any significant differences between groups of eyes based on baseline measurements or changes from baseline in those measurements. In addition to the quantitative analysis of OCT images, OCT Analysis #2 included qualitative assessment of the OCT images to identify GA, pseudodrusen, and disruption of the ELM and EZ layers. FIGS. 9A, 9B and 9C illustrate the level of varying pathology within the ELM based on quantitative mapping that were also assessed, with FIG. 9A (left) showing no ELM disruption, FIG. 9B (center) showing segmental disruption, and FIG. 9C showing diffuse disruption.
# [1] = risuteganib nonresponder eyes, n = 12
# [2] = risuteganib responder eyes, n = 12
# [3] = risuteganib super-responder eyes, n = 8
smiles,measurement,setting,value
"C[C@@H](O)[C@H](NC(=O)[C@H](CS(=O)(=O)O)NC(=O)CNC(=O)[C@H](CCCNC(=N)N)NC(=O)CN)C(=O)N1CCC[C@H]1C(=O)O [risuteganib, Glycyl-L-arginylglycyl-3-sulfo-L-alanyl-L-threonyl-L-proline] (H-GRG[Cya]TP-OH)","Change in mean thickness, Inner retina mid subfield",[1],2.274 μm
same,"Change in mean thickness, ONL-EZ central subfield",[1],−6.486 μm
same,"Change in mean thickness, ONL-EZ mid subfield",[1],−4.522 μm
same,"Change in mean thickness, ONL-RPE central subfield",[1],−7.877 μm
same,"Change in mean thickness, ONL-RPE foveal center",[1],−7.626 μm
same,"Change in mean thickness, ONL-RPE mid subfield",[1],−6.320 μm
same,"Change in mean thickness, RPE-BM central subfield",[1],−0.118 μm
same,"Change in mean thickness, RPE-BM foveal center",[1],−3.740 μm
same,"Change in mean thickness, RPE-BM mid subfield",[1],1.114 μm
same,"Change in mean thickness, Total retinal central subfield",[1],−5.981 μm
same,"Change in mean thickness, Total retinal foveal center",[1],−9.112 μm
same,"Change in mean thickness, Total retinal mid subfield",[1],−4.046 μm
same,"Change in volume, ELM-EZ central subfield",[1],−0.001 mm^3
same,"Change in volume, ELM-EZ mid subfield",[1],0.002 mm^3
same,"Change in volume, ELM-RPE",[1],0.009 mm^3
same,"Change in volume, ELM-RPE central subfield",[1],−0.002 mm^3
same,"Change in volume, ELM-RPE mid subfield",[1],−0.003 mm^3
same,"Change in volume, EZ-RPE",[1],0.005 mm^3
same,"Change in volume, EZ-RPE central subfield",[1],−0.001 mm^3
same,"Change in volume, EZ-RPE mid subfield",[1],−0.006 mm^3
same,"Change in volume, ONL-EZ central subfield",[1],−0.005 mm^3
same,"Change in volume, ONL-EZ mid subfield",[1],−0.014 mm^3
same,"Change in volume, ONL-RPE",[1],−0.026 mm^3
same,"Change in volume, ONL-RPE central subfield",[1],−0.006 mm^3
same,"Change in volume, ONL-RPE mid subfield",[1],−0.020 mm^3
same,"Change in volume, RPE-BM",[1],0.037 mm^3
same,"Change in volume, RPE-BM central subfield",[1],0.000 mm^3
same,"Change in volume, RPE-BM mid subfield",[1],0.004 mm^3
same,"Change in volume, Total retinal",[1],0.091 mm^3
same,"Change in volume, Total retinal central subfield",[1],−0.004 mm^3
same,"Change in volume, Total retinal mid subfield",[1],−0.012 mm^3
same,"Map coverage, 0 μm EZ",[1],1.469%
same,"Map coverage, 0 μm RPE-BM",[1],1.465%
same,"Map coverage, 10 μm EZ",[1],1.332%
same,"Map coverage, 20 μm EZ",[1],1.288%
same,"Map coverage, 50 μm RPE-BM",[1],−1.794%
same,"Map coverage, 150 μm RPE-BM",[1],2.143%
same,"Map coverage, 250 μm RPE-BM",[1],0.000%
same,"Change in mean thickness, ELM-EZ central subfield",[2],−2.322 μm
same,"Change in mean thickness, ELM-EZ mid subfield",[2],−0.967 μm
same,"Change in mean thickness, ELM-RPE central subfield",[2],−3.102 μm
same,"Change in mean thickness, ELM-RPE foveal center",[2],−0.000 μm and 0.000 μm
same,"Change in mean thickness, ELM-RPE mid subfield",[2],−2.141 μm
same,"Change in mean thickness, EZ-RPE central subfield",[2],−0.779 μm
same,"Change in mean thickness, EZ-RPE foveal center",[2],0.975 μm
same,"Change in mean thickness, EZ-RPE mid subfield",[2],−1.174 μm
same,"Change in mean thickness, Inner retina central subfield",[2],5.864 μm
same,"Change in mean thickness, Inner retina mid subfield",[2],5.512 μm
same,"Change in mean thickness, ONL-EZ central subfield",[2],−5.775 μm
same,"Change in mean thickness, ONL-EZ mid subfield",[2],−5.386 μm
same,"Change in mean thickness, ONL-RPE central subfield",[2],−6.555 μm
same,"Change in mean thickness, ONL-RPE foveal center",[2],0.650 μm
same,"Change in mean thickness, ONL-RPE mid subfield",[2],−6.561 μm
same,"Change in mean thickness, RPE-BM central subfield",[2],−8.238 μm
same,"Change in mean thickness, RPE-BM foveal center",[2],−12.512 μm
same,"Change in mean thickness, RPE-BM mid subfield",[2],−5.287 μm
same,"Change in mean thickness, Total retinal central subfield",[2],−0.691 μm
same,"Change in mean thickness, Total retinal foveal center",[2],0.804 μm
same,"Change in mean thickness, Total retinal mid subfield",[2],−1.049 μm
same,"Change in volume, ELM-EZ central subfield",[2],−0.002 mm^3
same,"Change in volume, ELM-EZ mid subfield",[2],−0.003 mm^3
same,"Change in volume, ELM-RPE",[2],0.086 mm^3
same,"Change in volume, ELM-RPE central subfield",[2],−0.002 mm^3
same,"Change in volume, ELM-RPE mid subfield",[2],−0.007 mm^3
same,"Change in volume, EZ-RPE",[2],−0.059 mm^3
same,"Change in volume, EZ-RPE central subfield",[2],−0.001 mm^3
same,"Change in volume, EZ-RPE mid subfield",[2],−0.004 mm^3
same,"Change in volume, ONL-EZ central subfield",[2],−0.004 mm^3
same,"Change in volume, ONL-EZ mid subfield",[2],−0.017 mm^3
same,"Change in volume, ONL-RPE",[2],0.009 mm^3
same,"Change in volume, ONL-RPE central subfield",[2],−0.005 mm^3
same,"Change in volume, ONL-RPE mid subfield",[2],−0.021 mm^3
same,"Change in volume, RPE-BM",[2],−0.049 mm^3
same,"Change in volume, RPE-BM central subfield",[2],−0.007 mm^3
same,"Change in volume, RPE-BM mid subfield",[2],−0.017 mm^3
same,"Change in volume, Total retinal",[2],−0.188 mm^3
same,"Change in volume, Total retinal central subfield",[2],0.000 mm^3
same,"Change in volume, Total retinal mid subfield",[2],−0.004 mm^3
same,"Map coverage, 0 μm EZ",[2],3.679%
same,"Map coverage, 0 μm RPE-BM",[2],1.099%
same,"Map coverage, 10 μm EZ",[2],3.699%
same,"Map coverage, 20 μm EZ",[2],3.574%
same,"Map coverage, 50 μm RPE-BM",[2],−3.494%
same,"Map coverage, 150 μm RPE-BM",[2],3.335%
same,"Map coverage, 250 μm RPE-BM",[2],−0.011%
same,"Change in mean thickness, ELM-EZ central subfield",[3],−1.658 μm
same,"Change in mean thickness, ELM-EZ mid subfield",[3],−1.049 μm
same,"Change in mean thickness, ELM-RPE central subfield",[3],−3.461 μm
same,"Change in mean thickness, ELM-RPE foveal center",[3],2.925 μm
